From patent US11912701B2, “Protein kinase inhibitors for promoting liver regeneration or reducing or preventing hepatocyte death” (HEPAREGENIX GMBH, priority 2018, dated 2024)

Experiments:
MKK4 [1] = molecular target: T1, MKK4 (Homo sapiens, UniProt P45985); experiment: KINOMEscan competition binding assay, MKK4; conditions: residual percent of control binding (PoC) at 100 nM
T1 construct: S84/D399; host or cells: HEK-293
T1 sequence (P45985 84-399): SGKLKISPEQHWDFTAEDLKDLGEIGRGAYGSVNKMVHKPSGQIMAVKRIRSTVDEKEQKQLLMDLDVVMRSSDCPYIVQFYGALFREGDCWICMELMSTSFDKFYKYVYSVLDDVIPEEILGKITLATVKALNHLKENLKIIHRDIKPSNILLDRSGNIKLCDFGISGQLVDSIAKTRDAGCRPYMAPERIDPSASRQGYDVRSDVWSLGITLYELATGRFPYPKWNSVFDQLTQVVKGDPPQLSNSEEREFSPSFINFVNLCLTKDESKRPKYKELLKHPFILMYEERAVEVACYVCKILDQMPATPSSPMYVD
Method in brief: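 KINOMEscan competition of compound versus immobilized ligand for DNA-tagged MKK4 expressed in HEK-293 cells. Bound kinase was quantified by qPCR after elution.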

BRaf [2] = molecular target: T2, BRaf (Homo sapiens, UniProt P15056); experiment: KINOMEscan competition binding assay, BRaf; conditions: ratio PoC (off-target)/PoC (MKK4)
T2 construct: purchased ProQinase GmbH, Freiburg, Germany (33PanQinase Assay Service)
T2 sequence (P15056 whole entry, species assumed): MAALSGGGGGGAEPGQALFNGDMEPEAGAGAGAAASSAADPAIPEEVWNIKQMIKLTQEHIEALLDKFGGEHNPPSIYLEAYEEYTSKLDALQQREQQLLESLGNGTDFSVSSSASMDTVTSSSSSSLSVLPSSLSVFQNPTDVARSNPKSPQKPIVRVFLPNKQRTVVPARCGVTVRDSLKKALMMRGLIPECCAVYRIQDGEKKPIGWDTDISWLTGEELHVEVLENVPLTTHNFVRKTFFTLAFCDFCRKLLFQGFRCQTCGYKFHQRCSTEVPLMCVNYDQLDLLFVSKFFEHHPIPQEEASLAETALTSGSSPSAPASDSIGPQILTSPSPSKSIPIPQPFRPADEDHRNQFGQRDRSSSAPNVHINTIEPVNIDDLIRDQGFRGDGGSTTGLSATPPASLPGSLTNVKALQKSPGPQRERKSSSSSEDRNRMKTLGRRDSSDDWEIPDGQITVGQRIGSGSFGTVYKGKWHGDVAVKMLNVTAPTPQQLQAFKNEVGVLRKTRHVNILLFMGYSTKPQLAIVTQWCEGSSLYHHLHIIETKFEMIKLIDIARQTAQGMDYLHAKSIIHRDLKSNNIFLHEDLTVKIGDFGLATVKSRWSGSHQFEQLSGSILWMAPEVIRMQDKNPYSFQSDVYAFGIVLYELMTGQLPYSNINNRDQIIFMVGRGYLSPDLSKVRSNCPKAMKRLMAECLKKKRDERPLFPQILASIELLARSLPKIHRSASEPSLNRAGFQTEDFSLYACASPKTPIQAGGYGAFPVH
Method in brief: (§1)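 DNA-tagged kinases expressed in HEK-293 cells compete between immobilized ligand on blocked beads and test compound at 100 nM; kinase retained on beads quantified by qPCR of the tag.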

MKK4 [3] = molecular target: T3, MKK4 (Homo sapiens, UniProt P45985); experiment: 33PanQinase enzyme assay, MKK4; assay type: biochemical; conditions: assay 'IC50'; read-out: Potency MKK4 (IC50)
T3 construct: purchased ProQinase GmbH, Freiburg, Germany (33PanQinase Assay Service)
T3 sequence (P45985 1-399): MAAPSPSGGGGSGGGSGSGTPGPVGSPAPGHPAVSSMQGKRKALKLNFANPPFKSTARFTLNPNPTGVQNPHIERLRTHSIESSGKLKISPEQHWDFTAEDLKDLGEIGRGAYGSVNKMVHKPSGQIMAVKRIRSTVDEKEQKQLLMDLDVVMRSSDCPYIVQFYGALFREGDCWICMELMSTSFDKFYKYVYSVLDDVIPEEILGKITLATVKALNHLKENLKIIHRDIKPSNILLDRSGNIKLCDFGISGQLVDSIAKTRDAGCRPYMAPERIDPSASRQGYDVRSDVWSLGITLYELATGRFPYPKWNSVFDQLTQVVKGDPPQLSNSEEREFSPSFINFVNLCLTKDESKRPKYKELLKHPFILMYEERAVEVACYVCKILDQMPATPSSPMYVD
Method in brief: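 Radiometric 33PanQinase assay: kinase, substrate, ATP and compound in standard buffer, 60 min at 30 °C; 33Pi incorporation read by scintillation counting.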

BRaf [4] = molecular target: T2, BRaf; experiment: 33PanQinase enzyme assay, BRaf; assay type: biochemical; conditions: ratio IC50(BRaf)/IC50(MKK4)
Method in brief: (§2)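 Radiometric kinase reactions with ATP, test compound in DMSO and enzyme/substrate mix were incubated 60 min at 30 °C, stopped with 2% H3PO4 and washed; incorporated 33Pi was counted by scintillation. Single-concentration data are given as % residual activity; IC50 values come from least-squares curve fits.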

MKK7 [5] = molecular target: T4, MKK7 (Homo sapiens, UniProt O14733); experiment: KINOMEscan competition binding assay, MKK7; design: M1/R419; host or cells: HEK-293; conditions: ratio PoC (off-target)/PoC (MKK4)
T4 sequence (O14733 1-419): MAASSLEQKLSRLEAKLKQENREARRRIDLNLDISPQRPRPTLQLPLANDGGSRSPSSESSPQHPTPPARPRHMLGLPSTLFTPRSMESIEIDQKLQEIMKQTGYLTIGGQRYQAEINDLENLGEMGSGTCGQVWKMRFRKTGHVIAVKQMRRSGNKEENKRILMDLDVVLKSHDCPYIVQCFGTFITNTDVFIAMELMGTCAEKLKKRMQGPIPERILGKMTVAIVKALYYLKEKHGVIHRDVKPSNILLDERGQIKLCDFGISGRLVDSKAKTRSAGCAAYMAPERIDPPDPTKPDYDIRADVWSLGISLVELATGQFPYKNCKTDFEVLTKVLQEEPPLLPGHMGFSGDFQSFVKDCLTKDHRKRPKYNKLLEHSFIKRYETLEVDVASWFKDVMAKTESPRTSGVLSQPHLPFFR
Method in brief: as §1

JNK1 [6] = molecular target: T5, JNK1 (Homo sapiens, UniProt P45983); experiment: KINOMEscan competition binding assay, JNK1; design: M1/Q384; host or cells: HEK-293; conditions: ratio PoC (off-target)/PoC (MKK4)
Method in brief: as §1
Target sequence in this assay (P45983 1-384 isoform P45983-2): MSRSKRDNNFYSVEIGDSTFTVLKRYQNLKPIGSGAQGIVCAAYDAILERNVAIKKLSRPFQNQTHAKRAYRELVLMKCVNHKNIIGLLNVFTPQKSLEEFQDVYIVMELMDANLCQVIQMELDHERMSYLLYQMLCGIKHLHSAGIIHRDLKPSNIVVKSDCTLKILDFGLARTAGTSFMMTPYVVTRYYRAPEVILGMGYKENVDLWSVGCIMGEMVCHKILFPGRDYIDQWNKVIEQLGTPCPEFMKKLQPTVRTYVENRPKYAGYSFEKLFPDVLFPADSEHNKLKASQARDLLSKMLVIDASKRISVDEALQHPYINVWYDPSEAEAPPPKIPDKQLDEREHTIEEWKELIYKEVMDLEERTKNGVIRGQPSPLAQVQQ

JNK1 [7] = molecular target: T5, JNK1; experiment: 33PanQinase enzyme assay, JNK1; assay type: biochemical; design: purchased ProQinase GmbH, Freiburg, Germany (33PanQinase Assay Service); conditions: ratio IC50(JNK1)/IC50(MKK4)
Method in brief: as §2
Target sequence in this assay (P45983 whole entry): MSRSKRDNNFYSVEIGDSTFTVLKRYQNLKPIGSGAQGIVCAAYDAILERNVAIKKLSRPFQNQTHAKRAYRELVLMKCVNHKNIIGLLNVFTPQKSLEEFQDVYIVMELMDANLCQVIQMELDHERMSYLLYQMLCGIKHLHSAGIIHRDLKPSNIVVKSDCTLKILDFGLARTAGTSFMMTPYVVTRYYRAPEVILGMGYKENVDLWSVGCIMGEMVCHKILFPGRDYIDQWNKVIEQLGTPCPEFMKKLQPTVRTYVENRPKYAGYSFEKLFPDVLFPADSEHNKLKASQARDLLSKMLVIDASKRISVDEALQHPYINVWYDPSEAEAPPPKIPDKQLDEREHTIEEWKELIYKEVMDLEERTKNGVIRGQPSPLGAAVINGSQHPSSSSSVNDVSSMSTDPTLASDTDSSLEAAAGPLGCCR

MKK7 [8] = molecular target: T4, MKK7; experiment: 33PanQinase enzyme assay, MKK7; assay type: biochemical; design: purchased ProQinase GmbH, Freiburg, Germany (33PanQinase Assay Service); conditions: ratio IC50(MKK7)/IC50(MKK4)
Method in brief: as §2

Row | Structure (SMILES) | MKK4 [% Ctrl @ 100 nM (MKK4 [1]) | selectivity based on % Ctrl @100 nM vs. Braf (BRaf [2]) | IC50 (MKK4 [3]) [µM] | Selectivity Braf, IC50(off-target)/IC50(MKK4) (BRaf [4]) | selectivity based on % Ctrl @100 nM vs. MKK7 (MKK7 [5]) | selectivity based on % Ctrl @100 nM vs. JNK1 (JNK1 [6]) | Selectivity JNK1, IC50(off-target)/IC50(MKK4) (JNK1 [7]) | Selectivity IVIKK7, IC50(off-target)/IC50(MKK4) (MKK7 [8])
1 | O=C(c1ccc(F)c(NS(=O)(=O)CCC(F)(F)F)c1F)c1c[nH]c2ncc(-c3cnc(N4CCCC4)nc3)cc12 [Example 179, N-(2,6-difluoro-3-(5-(2-(pyrrolidin-1-yl)pyrimidin-5-yl)-1H-pyrrolo[2,3-b]pyridine-3-carbonyl)phenyl)-3,3,3-trifluoropropane-1-sulfonamide] | +++ (PoC < 1) | +++ (Ratio > 100) | < 0.1 | +++ (IC50(off-target)/IC50(MKK4) > 100) | +++ (Ratio > 100) | +++ (Ratio > 100) | +++ (IC50(off-target)/IC50(MKK4) > 100) | +++ (IC50(off-target)/IC50(MKK4) > 100)
2 | O=C(c1cccc(NS(=O)(=O)Cc2ccccc2)c1F)c1c[nH]c2ncc(-c3ccc(Cl)cc3)cc12 [Example 124, N-(3-(5-(4-chlorophenyl)-1H-pyrrolo[2,3-b]pyridine-3-carbonyl)-2-fluorophenyl)-1-phenylmethanesulfonamide] | + (3 ≤ PoC < 30) | ++ (100 ≥ ratio > 10) | 0.1 to 1 | +++ (IC50(off-target)/IC50(MKK4) > 100) | ++ (100 ≥ ratio > 10) | ++ (100 ≥ ratio > 10) | ◯ (3 ≥ IC50(off-target)/IC50(MKK4)) | +++ (IC50(off-target)/IC50(MKK4) > 100)
3 | CCCS(=O)(=O)Nc1c(F)ccc(C(=O)c2c[nH]c3ncc(-c4ccc(N5CCC5)nc4)cc23)c1F [Example 162, N-(3-(5-(6-(azetidin-1-yl)pyridin-3-yl)-1H-pyrrolo[2,3-b]pyridine-3-carbonyl)-2,6-difluorophenyl)propane-1-sulfonamide] | +++ (PoC < 1) | +++ (Ratio > 100) | 0.1 to 1 | ++ (100 ≥ IC50(off-target)/IC50(MKK4) > 10) | +++ (Ratio > 100) | +++ (Ratio > 100) | ++ (100 ≥ IC50(off-target)/IC50(MKK4) > 10) | +++ (IC50(off-target)/IC50(MKK4) > 100)
4 | CCCS(=O)(=O)Nc1ccc(F)c(C(=O)c2c[nH]c3ncc(-c4ccc(OC(F)(F)F)cc4)cc23)c1F [Example 111, N-(2,4-difluoro-3-(5-(4-(trifluoromethoxy)phenyl)-1H-pyrrolo[2,3-b]pyridine-3-carbonyl)phenyl)propane-1-sulfonamide] | ◯ (30 ≤ PoC) | ◯ (3 ≥ Ratio) | 0.1 to 1 | ◯ (3 ≥ IC50(off-target)/IC50(MKK4)) | ◯ (3 ≥ Ratio) | ◯ (3 ≥ Ratio) | + (10 ≥ IC50(off-target)/IC50(MKK4) > 3) | +++ (IC50(off-target)/IC50(MKK4) > 100)
5 | CCCS(=O)(=O)Nc1ccc(F)c(C(=O)c2c[nH]c3ncc(-c4cccnn4)cc23)c1F [Example 48] | + (3 ≤ PoC < 30) | ◯ (3 ≥ Ratio) | 1 to 10 | ◯ (3 ≥ IC50(off-target)/IC50(MKK4)) | ++ (100 ≥ ratio > 10) | ++ (100 ≥ ratio > 10) | ◯ (3 ≥ IC50(off-target)/IC50(MKK4)) | ++ (100 ≥ IC50(off-target)/IC50(MKK4) > 10)
6 | CCCS(=O)(=O)Nc1c(F)ccc(C(=O)c2c[nH]c3ncc(-c4ccc(NC)nc4)cc23)c1F [Example 160, N-(2,6-difluoro-3-(5-(6-(methylamino)pyridin-3-yl)-1H-pyrrolo[2,3-b]pyridine-3-carbonyl)phenyl)propane-1-sulfonamide] | +++ (PoC < 1) | +++ (Ratio > 100) | < 0.1 | ++ (100 ≥ IC50(off-target)/IC50(MKK4) > 10) | +++ (Ratio > 100) | +++ (Ratio > 100) | ++ (100 ≥ IC50(off-target)/IC50(MKK4) > 10) | +++ (IC50(off-target)/IC50(MKK4) > 100)
7 | CCCS(=O)(=O)Nc1ccc(F)c(C(=O)c2c[nH]c3ncc(-c4ccc(C(=O)O)cc4)cc23)c1F [Example 108, 4-(3-(2,6-difluoro-3-(propylsulfonamido)benzoyl)-1H-pyrrolo[2,3-b]pyridin-5-yl)benzoic acid] | +++ (PoC < 1) | ++ (100 ≥ ratio > 10) | < 0.1 | ◯ (3 ≥ IC50(off-target)/IC50(MKK4)) | +++ (Ratio > 100) | +++ (Ratio > 100) | + (10 ≥ IC50(off-target)/IC50(MKK4) > 3) | +++ (IC50(off-target)/IC50(MKK4) > 100)
8 | O=C(c1ccc(F)c(NS(=O)(=O)CCC(F)(F)F)c1F)c1c[nH]c2ncc(-c3cccnc3)cc12 [Example 156, N-(2,6-difluoro-3-(5-(pyridin-3-yl)-1H-pyrrolo[2,3-b]pyridine-3-carbonyl)phenyl)-3,3,3-trifluoropropane-1-sulfonamide] | +++ (PoC < 1) | +++ (Ratio > 100) | < 0.1 | ++ (100 ≥ IC50(off-target)/IC50(MKK4) > 10) | +++ (Ratio > 100) | +++ (Ratio > 100) | +++ (IC50(off-target)/IC50(MKK4) > 100) | +++ (IC50(off-target)/IC50(MKK4) > 100)
